Consider 22 compounds from US11180494B2, “Substituted amino acids as integrin inhibitors” (Pliant Therapeutics, Inc., priority 2018, dated 2021).

Broadly, the IC50 is the point on the concentration scale where inhibition reaches its midpoint.

Chain of human integrin αvβ6 (P06756 31-992): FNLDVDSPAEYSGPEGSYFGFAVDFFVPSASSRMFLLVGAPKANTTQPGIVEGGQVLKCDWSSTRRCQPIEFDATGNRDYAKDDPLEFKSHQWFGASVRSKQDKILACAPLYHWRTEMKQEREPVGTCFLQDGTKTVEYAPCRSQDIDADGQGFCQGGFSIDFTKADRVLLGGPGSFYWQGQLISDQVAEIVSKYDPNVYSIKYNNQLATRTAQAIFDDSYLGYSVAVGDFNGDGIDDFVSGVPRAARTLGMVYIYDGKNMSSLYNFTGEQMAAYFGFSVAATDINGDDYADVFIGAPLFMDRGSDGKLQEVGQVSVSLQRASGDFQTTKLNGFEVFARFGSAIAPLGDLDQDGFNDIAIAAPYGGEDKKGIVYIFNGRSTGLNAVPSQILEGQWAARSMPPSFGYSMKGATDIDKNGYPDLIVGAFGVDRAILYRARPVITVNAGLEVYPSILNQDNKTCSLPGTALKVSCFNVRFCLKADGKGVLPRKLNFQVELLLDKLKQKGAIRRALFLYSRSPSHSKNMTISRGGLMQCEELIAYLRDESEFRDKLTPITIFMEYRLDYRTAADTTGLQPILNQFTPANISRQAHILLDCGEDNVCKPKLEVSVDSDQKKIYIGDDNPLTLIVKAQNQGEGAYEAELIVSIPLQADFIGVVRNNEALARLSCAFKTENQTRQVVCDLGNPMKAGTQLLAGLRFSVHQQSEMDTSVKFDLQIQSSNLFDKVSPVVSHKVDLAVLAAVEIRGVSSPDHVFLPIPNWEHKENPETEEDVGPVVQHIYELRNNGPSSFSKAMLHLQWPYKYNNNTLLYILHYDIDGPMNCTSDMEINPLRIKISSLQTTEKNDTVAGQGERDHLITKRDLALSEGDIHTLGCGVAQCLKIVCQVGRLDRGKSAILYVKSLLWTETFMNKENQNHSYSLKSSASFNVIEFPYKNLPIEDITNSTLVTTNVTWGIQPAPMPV
Chain of human integrin αvβ6 (P18564 22-707): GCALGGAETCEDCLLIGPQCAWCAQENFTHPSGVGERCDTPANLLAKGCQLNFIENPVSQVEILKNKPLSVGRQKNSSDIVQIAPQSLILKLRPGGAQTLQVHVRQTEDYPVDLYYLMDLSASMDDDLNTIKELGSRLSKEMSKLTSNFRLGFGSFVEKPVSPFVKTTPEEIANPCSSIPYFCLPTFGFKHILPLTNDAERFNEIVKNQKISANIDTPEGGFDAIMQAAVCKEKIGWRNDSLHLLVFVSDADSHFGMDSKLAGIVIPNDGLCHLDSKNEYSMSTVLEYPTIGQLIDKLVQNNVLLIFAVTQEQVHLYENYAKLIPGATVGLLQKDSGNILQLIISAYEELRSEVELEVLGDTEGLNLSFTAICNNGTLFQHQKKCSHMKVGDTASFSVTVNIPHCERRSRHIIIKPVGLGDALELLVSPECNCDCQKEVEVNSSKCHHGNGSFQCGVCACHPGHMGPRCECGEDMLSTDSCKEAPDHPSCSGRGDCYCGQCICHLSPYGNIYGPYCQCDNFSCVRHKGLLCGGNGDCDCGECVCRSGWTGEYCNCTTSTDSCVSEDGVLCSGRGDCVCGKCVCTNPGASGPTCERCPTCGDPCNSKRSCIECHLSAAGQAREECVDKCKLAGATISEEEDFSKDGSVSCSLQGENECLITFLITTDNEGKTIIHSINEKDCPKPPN

This test concerns the target human integrin αvβ6 (Homo sapiens (Human), UniProt P06756+P18564). The test is described as follows: Proximity-based integrin receptor binding assay (ALPHASCREEN) for inhibitor potency. Particulars: inhibition of binding of TGF-b1 LAP to human integrin αvβ6; values given in ranges. A digest of the protocol: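 AlphaScreen: integrin, compound, TGF-b1 LAP, biotinylated anti-LAP antibody and acceptor beads incubated 2 hours, then streptavidin donor beads 30 minutes, at room temperature in 50 mM Tris-HCl pH 7.5, 0.1% BSA, 1 mM CaCl2 and MgCl2. Excitation 680 nm, emission 520-620 nm; IC50 by four-parameter logistic fit.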
For the compound `CC(C)(C)OC(=O)N1CC(C)(OC(=O)N[C@@H](CCO[C@H]2C[C@H](CCc3ccc4c(n3)NCCC4)C2)C(=O)O)C1` [Compound 127, N-(((1-(tert-butoxycarbonyl)-3-methylazetidin-3-yl)oxy)carbonyl)-O-(trans-3-(2-(5,6,7,8-tetrahydro-1,8-naphthyridin-2-yl)ethyl)cyclobutyl)homoserine], the IC50 is less than 50 nM.
With `CCN(CC)C(=O)N[C@@H](CCO[C@H]1C[C@H](CCc2ccc3c(n2)NCCC3)C1)C(=O)O` [Compound 117, N-(diethylcarbamoyl)-O-(trans-3-(2-(5,6,7,8-tetrahydro-1,8-naphthyridin-2-yl)ethyl)cyclobutyl)homoserine] the figure was less than 50 nM; with `O=C(N[C@@H](CCO[C@H]1C[C@H](CCc2ccc3c(n2)NCCC3)C1)C(=O)O)O[C@H]1CC[C@H](c2ccccc2)CC1` [Compound 148, N-(((trans-4-phenylcyclohexyl)oxy)carbonyl)-O-(trans-3-(2-(5,6,7,8-tetrahydro-1,8-naphthyridin-2-yl)ethyl)cyclobutyl)homoserine], 250 to 1000 nM; with `CC1(OC(=O)N[C@@H](CCO[C@H]2C[C@H](CCc3ccc4c(n3)NCCC4)C2)C(=O)O)CC1` [Compound 113, N-((1-methylcyclopropoxy)carbonyl)-O-(trans-3-(2-(5,6,7,8-tetrahydro-1,8-naphthyridin-2-yl)ethyl)cyclobutyl)homoserine], less than 50 nM.
As for `CC(=O)N1CC(C)(OC(=O)N[C@@H](CCO[C@H]2C[C@H](CCc3ccc4c(n3)NCCC4)C2)C(=O)O)C1` [Compound 129, N-(((1-acetyl-3-methylazetidin-3-yl)oxy)carbonyl)-O-(trans-3-(2-(5,6,7,8-tetrahydro-1,8-naphthyridin-2-yl)ethyl)cyclobutyl)homoserine], the IC50 is 50 to 250 nM.
Then `CC1(C(=O)N[C@@H](CCO[C@H]2C[C@H](CCc3ccc4c(n3)NCCC4)C2)C(=O)O)CCOCC1` [Compound 164, N-(4-methyltetrahydro-2H-pyran-4-carbonyl)-O-(trans-3-(2-(5,6,7,8-tetrahydro-1,8-naphthyridin-2-yl)ethyl)cyclobutyl)homoserine], with less than 50 nM; and `O=C(N[C@@H](CCO[C@H]1C[C@H](CCc2ccc3c(n2)NCCC3)C1)C(=O)O)c1cccc(Cl)c1F` [Compound 27, N-(3-chloro-2-fluorobenzoyl)-O-(trans-3-(2-(5,6,7,8-tetrahydro-1,8-naphthyridin-2-yl)ethyl)cyclobutyl)homoserine], with less than 50 nM.
For the compound `CC(C)(C(=O)NC(CCO[C@H]1C[C@H](CCc2ccc3c(n2)NCCC3)C1)C(=O)O)c1cccnc1` (stereo partly drawn) [Compound 106, N-(2-methyl-2-(pyridin-3-yl)propanoyl)-O-(trans-3-(2-(5,6,7,8-tetrahydro-1,8-naphthyridin-2-yl)ethyl)cyclobutyl)homoserine], the IC50 is less than 50 nM.
`O=C(N[C@@H](CCO[C@H]1C[C@H](CCc2ccc3c(n2)NCCC3)C1)C(=O)O)C1CCc2ccccc21` (single isomer, unassigned) [111**,††]: the half-maximal inhibitory concentration (IC50) was less than 50 nM.
`CCCCC(=O)NC(CCOC1CC(CCc2ccc3c(n2)NCCC3)C1)C(=O)O` (stereo not shown) [Compound 11, N-pentanoyl-O-(3-(2-(5,6,7,8-tetrahydro-1,8-naphthyridin-2-yl)ethyl)cyclobutyl)homoserine]: the IC50 is 50 to 250 nM.
With `O=C(O)C(CCO[C@H]1C[C@H](CCc2ccc3cccnc3n2)C1)Nc1ncnc2ccccc12` (stereo partly drawn) [Example 227, O-(trans-3-(2-(1,8-naphthyridin-2-yl)ethyl)cyclobutyl)-N-(quinazolin-4-yl)homoserine] the figure was 250 to 1000 nM; with `CCC(CC)C(=O)NC(CCOCCCCc1ccc2c(n1)NCCC2)C(=O)O` (stereo not shown) [Compound 5, N-(2-ethylbutanoyl)-O-(4-(5,6,7,8-tetrahydro-1,8-naphthyridin-2-yl)butyl)homoserine], 50 to 250 nM.
Then `O=C(N[C@@H](CCO[C@H]1C[C@H](CCc2ccc3c(n2)NCCC3)C1)C(=O)O)c1ccccc1N1CCOCC1` [Compound 168, N-(2-morpholinobenzoyl)-O-(trans-3-(2-(5,6,7,8-tetrahydro-1,8-naphthyridin-2-yl)ethyl)cyclobutyl)homoserine], with 50 to 250 nM; and `CC(C)(C)OC(=O)NC(CCOCCCCc1ccc2c(n1)NCCC2)C(=O)O` (stereo not shown) [Compound 13, N-(tert-butoxycarbonyl)-O-(4-(5,6,7,8-tetrahydro-1,8-naphthyridin-2-yl)butyl)homoserine], with 250 to 1000 nM.
With `CC(C)(C)OC(=O)N1CC[C@H](OC(=O)N[C@@H](CCO[C@H]2C[C@H](CCc3ccc4c(n3)NCCC4)C2)C(=O)O)C1` [Compound 133, N—((((S)-1-(tert-butoxycarbonyl)pyrrolidin-3-yl)oxy)carbonyl)-O-(trans-3-(2-(5,6,7,8-tetrahydro-1,8-naphthyridin-2-yl)ethyl)cyclobutyl)homoserine] the figure was less than 50 nM; with `O=C(N[C@@H](CCO[C@H]1C[C@@H](CCc2ccc3c(n2)NCCC3)C1)C(=O)O)c1cccc(-c2cncs2)c1` [Compound 69, O-(cis-3-(2-(5,6,7,8-tetrahydro-1,8-naphthyridin-2-yl)ethyl)cyclobutyl)-N-(3-(thiazol-5-yl)benzoyl)homoserine], 250 to 1000 nM; with `CC1(OC(=O)N[C@@H](CCO[C@H]2C[C@H](CCc3ccc4c(n3)NCCC4)C2)C(=O)O)CN(S(C)(=O)=O)C1` [Compound 128, N-(((3-methyl-1-(methylsulfonyl)azetidin-3-yl)oxy)carbonyl)-O-(trans-3-(2-(5,6,7,8-tetrahydro-1,8-naphthyridin-2-yl)ethyl)cyclobutyl)homoserine], 50 to 250 nM.
For `CCC(CC)CC(=O)N[C@H](CCO[C@H]1C[C@H](CCc2ccc3c(n2)NCCC3)C1)C(=O)O` [Compound 59, N-(3-ethylpentanoyl)-O-(trans-3-(2-(5,6,7,8-tetrahydro-1,8-naphthyridin-2-yl)ethyl)cyclobutyl)-D-homoserine], the IC50 is greater than 1000 nM.
With `C[C@@H](CNC(=O)OC(C)(C)C)OC(=O)N[C@@H](CCO[C@H]1C[C@H](CCc2ccc3c(n2)NCCC3)C1)C(=O)O` [Compound 152, N—((((S)-1-((tert-butoxycarbonyl)amino)propan-2-yl)oxy)carbonyl)-O-(trans-3-(2-(5,6,7,8-tetrahydro-1,8-naphthyridin-2-yl)ethyl)cyclobutyl)homoserine], the IC50 was less than 50 nM.
With `CC(C)(CO)C(=O)NC(CCO[C@H]1C[C@H](CCc2ccc3c(n2)NCCC3)C1)C(=O)O` (stereo partly drawn) [Compound 89, N-(3-hydroxy-2,2-dimethylpropanoyl)-O-(trans-3-(2-(5,6,7,8-tetrahydro-1,8-naphthyridin-2-yl)ethyl)cyclobutyl)homoserine] the figure was 250 to 1000 nM; with `CC1(C(=O)NC(CCOCCCCc2ccc3c(n2)NCCC3)C(=O)O)CCOCC1` (stereo not shown) [Compound 187, N-(4-methyltetrahydro-2H-pyran-4-carbonyl)-O-(4-(5,6,7,8-tetrahydro-1,8-naphthyridin-2-yl)butyl)homoserine], 250 to 1000 nM; with `COCC(C)(C)C(=O)NC(CCO[C@H]1C[C@H](CCc2ccc3c(n2)NCCC3)C1)C(=O)O` (stereo partly drawn) [Compound 90, N-(3-methoxy-2,2-dimethylpropanoyl)-O-(trans-3-(2-(5,6,7,8-tetrahydro-1,8-naphthyridin-2-yl)ethyl)cyclobutyl)homoserine], 250 to 1000 nM.
